Data on one compound can be found in patent publication US10087156B2, “Methods and compositions related to retinoid receptor-selective pathway” (Sanford Burnham Prebys Medical Discovery Institute, priority 2010, dated 2018).

In this assay the target is T1, interaction of p85α with RXRα/Δ80 (Homo sapiens, UniProt P19793).
T1 construct: expressed in transfected cells; host or cells: A549 human lung cancer cells
Nature of the assay: Co-immunoprecipitation of Flag-p85α and Myc-RXRα/Δ80 in A549 cells. The assay is classed as cell-based. As to conditions: 50 μM, with or without TNFα. As to the method:
Caco-2 and MEF cells were treated with the indicated concentration of Sulindac or K-80003 for 30 min, then stimulated with all-trans-RA (10^-7 M) for 15 min. AKT activation was analyzed by immunoblotting. PC3 cells transfected with RXRα or RARγ siRNA were pre-treated with K-80003 (50 μM) for 1 hr before exposed to TNFα (10 ng/ml) for 30 min (pRXRα: phosphorylated RXRα). A549 cells were transfected with Flag-p85α and Myc-RXRα/[…], treated with Sulindac (50 μM) or K-80003 (50 μM) for 1 hr, exposed to TNFα for 30 min, and analyzed by coimmunoprecipitation using an anti-Flag antibody. […] (FIG. 8C). Reducing RXRα expression by siRNA largely impaired the inhibitory effect of K-80003 on AKT activation in PC3 cells. […] Thus, inhibition of AKT activation by K-80003 was also dependent on RXRα expression (FIG. 8B). For the CoIP assay, cells or cells transfected with indicated expression vectors were suspended in lysis buffer (50 mM Tris-HCl, pH 7.4; 150 mM NaCl; 20 mM EDTA; 1% NP-40; 1 mM PMSF; […] Leupeptin; […] Aprotinin; 0.1 mM Na3VO4; and 1 mM DTT). […] Immunoreactive products were detected by chemiluminescence with an enhanced chemiluminescence system (ECLTM) (Amersham Biosciences, Amersham, UK).

The structures appear in SMILES notation. “Also recorded” adds a separate entry of the source.

T1 sequence (P19793 81-462 limits assumed, stated change not applied): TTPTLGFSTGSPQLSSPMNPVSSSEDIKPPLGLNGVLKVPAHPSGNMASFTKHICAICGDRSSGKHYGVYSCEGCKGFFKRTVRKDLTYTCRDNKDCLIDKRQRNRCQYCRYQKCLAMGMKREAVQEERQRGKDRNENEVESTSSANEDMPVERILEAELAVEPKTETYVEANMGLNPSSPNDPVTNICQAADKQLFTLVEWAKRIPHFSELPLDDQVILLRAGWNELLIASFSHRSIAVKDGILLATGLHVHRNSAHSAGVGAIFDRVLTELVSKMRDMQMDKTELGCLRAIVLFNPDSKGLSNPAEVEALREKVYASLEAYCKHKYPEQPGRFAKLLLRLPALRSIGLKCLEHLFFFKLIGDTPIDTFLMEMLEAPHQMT

`CC1=C(CC(=O)O)c2cc(F)ccc2/C1=C\c1ccc(C(C)C)cc1` [K-80003, (Z)-2-(3-(4-Iso-propylbenzylidene)-6-fluoro-2-methyl-3H-inden-1-yl)acetic acid]: the “inhibition of interaction of p85α with RXRα/Δ80” value is listed as “much more effective than Sulindac; also recorded: potently inhibited”.
